This is an account of results in US20260116920A1, “HUMAN TRANSFERRIN RECEPTOR BINDING PEPTIDE” (PEPTIDREAM INC., priority 2021, published 2026).

As a reminder, the Kd is the equilibrium constant for the complex coming apart.

Starred links: 1 amine or outer side, 2 acyl side, 3 side chain; linkers in the order of their positions; H or OH if unused. Positions of bridges follow the written chain, without caps; N, C: chain ends. Non-standard residues stand in square brackets, D forms with d. Residues, ends and D or L forms follow the SMILES beside them. Groups on a side chain read outwards from the residue. *: point of attachment. Trp(1-CH2COOH) = N[C@@H](Cc1cn(CC(=O)O)c2ccccc12)C(=O)O; Meglumine = CN(C[C@H](O)[C@@H](O)[C@H](O)[C@H](O)CO)*; NMePhe(3-Cl) = CN[C@@H](Cc1cccc(Cl)c1)C(=O)O; 3Pal(6-NH2) = Nc1ccc(C[C@H](N)C(=O)O)cn1; Lys(N3) = [N-]=[N+]=NCCCC[C@H](N)C(=O)O; NMe3Pal = CN[C@@H](Cc1cccnc1)C(=O)O; NMe4Pal = CN[C@@H](Cc1ccncc1)C(=O)O; NMeY = CN[C@@H](Cc1ccc(O)cc1)C(=O)O; 3Pal = N[C@@H](Cc1cccnc1)C(=O)O; 4Pal = N[C@@H](Cc1ccncc1)C(=O)O; PEG4 = NCCOCCOCCOCCOCCC(=O)O; Carboxymethyl = O=C(O)C*; CO = O=C([*:1])[*:2]

This assay deals with T1, human transferrin receptor (hTfR) (Homo sapiens, UniProt P02786).
T1 construct: made in house
T1 sequence (P02786 89-760 limits assumed): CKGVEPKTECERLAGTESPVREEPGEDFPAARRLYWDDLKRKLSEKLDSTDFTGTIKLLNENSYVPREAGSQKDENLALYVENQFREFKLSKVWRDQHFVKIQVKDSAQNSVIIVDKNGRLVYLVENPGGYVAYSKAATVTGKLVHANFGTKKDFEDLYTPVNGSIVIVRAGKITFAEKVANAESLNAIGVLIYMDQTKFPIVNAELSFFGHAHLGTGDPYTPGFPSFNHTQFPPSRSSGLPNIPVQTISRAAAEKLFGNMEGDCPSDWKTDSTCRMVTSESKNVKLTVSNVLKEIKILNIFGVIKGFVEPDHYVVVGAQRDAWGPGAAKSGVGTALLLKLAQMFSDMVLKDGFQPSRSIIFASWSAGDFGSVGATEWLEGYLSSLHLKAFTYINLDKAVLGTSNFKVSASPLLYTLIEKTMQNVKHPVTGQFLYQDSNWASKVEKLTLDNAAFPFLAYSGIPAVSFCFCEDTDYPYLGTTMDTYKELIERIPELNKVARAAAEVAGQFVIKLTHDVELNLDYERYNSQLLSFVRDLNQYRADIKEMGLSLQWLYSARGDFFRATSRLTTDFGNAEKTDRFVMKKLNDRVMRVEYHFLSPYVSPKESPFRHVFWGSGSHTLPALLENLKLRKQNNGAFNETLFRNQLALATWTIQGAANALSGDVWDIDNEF
The assay can be described thus: Evaluation of molecular interaction between transferrin receptor (hTfR) and peptide using surface plasmon resonance (SPR). Format: binding. The settings on record: surface plasmon resonance, binding to hTfR; KD class symbol; read-out: SPR (KD value). Summed up:
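Single-cycle SPR kinetics, KD by least-squares sensorgram fitting, with peptide series of 100, 50, 25, 10 and 5 nM. Running buffer: 10 mM HEPES pH 8.0, 150 mM NaCl, 0.05% Tween 20, 0.1% BSA, 1.0% DMSO. Surface: hTfR dimer covalently coupled (EDC/NHS) onto Ni-NTA chip.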

On to `CC[C@H](C)[C@@H]1NC(=O)[C@H](Cc2ccc(OC)cc2)NC(=O)[C@H](Cc2ccc(O)cc2)NC(=O)[C@H](CC(N)=O)NC(=O)[C@H](Cc2c[nH]c3ccccc23)NC(=O)[C@H](C(C)C)NC(=O)[C@H](Cc2cccc(Cl)c2)N(C)C(=O)[C@H](C(C)C)NC(=O)[C@H](C)NC(=O)CSC[C@@H](C(=O)NCCOCCOCCOCCOCCC(N)=O)NC(=O)[C@H](Cc2ccc(O)cc2)N(C)C(=O)[C@H](Cc2ccncc2)NC(=O)[C@H](CCCNC(=N)N)NC(=O)[C@H](CCCNC(=N)N)NC(=O)[C@H]([C@@H](C)CC)NC1=O` [compound 59], for which the Kd was under 1 nM.

As for `CC[C@H](C)[C@@H]1NC(=O)[C@H](Cc2cccnc2)NC(=O)[C@H](Cc2ccc(O)cc2)NC(=O)[C@H](CC(N)=O)NC(=O)[C@H](Cc2c[nH]c3ccccc23)NC(=O)[C@H](C(C)C)NC(=O)[C@H](Cc2cccc(Cl)c2)N(C)C(=O)[C@H](C(C)C)NC(=O)[C@H](C)NC(=O)CSC[C@@H](C(=O)NCCOCCOCCOCCOCCC(N)=O)NC(=O)[C@H](Cc2ccc(O)cc2)N(C)C(=O)[C@H](Cc2ccccc2)NC(=O)[C@H](CCCNC(=N)N)NC(=O)[C@H](CCCNC(=N)N)NC(=O)[C@H]([C@@H](C)CC)NC1=O` [compound 60] ({CH2CO}-AV[NMePhe(3-Cl)]VWNY[3Pal]IIRRF[NMeY]C[PEG4]-NH2; thioether N-15), the Kd was 1 to 100 nM. On to `CC[C@H](C)[C@@H]1NC(=O)[C@H](Cc2ccncc2)NC(=O)[C@H](Cc2ccc(O)cc2)NC(=O)[C@H](CC(N)=O)NC(=O)[C@H](Cc2c[nH]c3ccccc23)NC(=O)[C@H](C(C)C)NC(=O)[C@H](Cc2cccc(Cl)c2)N(C)C(=O)[C@H](C(C)C)NC(=O)[C@H](C)NC(=O)CSC[C@@H](C(=O)NCCOCCOCCOCCOCCC(N)=O)NC(=O)[C@H](Cc2ccc(O)cc2)N(C)C(=O)[C@H](Cc2ccccc2)NC(=O)[C@H](CCCNC(=N)N)NC(=O)[C@H](CCCNC(=N)N)NC(=O)[C@H]([C@@H](C)CC)NC1=O` [compound 61] ({CH2CO}-AV[NMePhe(3-Cl)]VWNY[4Pal]IIRRF[NMeY]C[PEG4]-NH2; thioether N-15), for which the Kd was in the range of 1 to 100 nM. The value for `CC[C@H](C)[C@@H]1NC(=O)[C@H](Cc2ccncc2)NC(=O)[C@H](Cc2ccc(N)nc2)NC(=O)[C@H](CC(N)=O)NC(=O)[C@H](Cc2c[nH]c3ccccc23)NC(=O)[C@H](C(C)C)NC(=O)[C@H](Cc2cccc(Cl)c2)N(C)C(=O)[C@H](C(C)C)NC(=O)[C@H](C)NC(=O)CSC[C@@H](C(=O)NCCOCCOCCOCCOCCC(N)=O)NC(=O)[C@H](Cc2ccc(O)cc2)N(C)C(=O)[C@H](Cc2ccncc2)NC(=O)[C@H](CCCNC(=N)N)NC(=O)[C@H](CCCNC(=N)N)NC(=O)[C@H]([C@@H](C)CC)NC1=O` [compound 62] ({CH2CO}-AV[NMePhe(3-Cl)]VWN[3Pal(6-NH2)][4Pal]IIRR[4Pal][NMeY]C[PEG4]-NH2; thioether N-15) was 1 to 100 nM; that for `CC[C@H](C)[C@@H]1NC(=O)[C@H](Cc2ccc(OC)cc2)NC(=O)[C@H](Cc2ccc(N)nc2)NC(=O)[C@H](CC(N)=O)NC(=O)[C@H](Cc2c[nH]c3ccccc23)NC(=O)[C@H](C(C)C)NC(=O)[C@H](Cc2cccnc2)N(C)C(=O)[C@H](C(C)C)NC(=O)[C@H](C)NC(=O)CSC[C@@H](C(=O)NCCOCCOCCOCCOCCC(N)=O)NC(=O)[C@H](Cc2ccc(O)cc2)N(C)C(=O)[C@H](Cc2ccccc2)NC(=O)[C@H](CCCNC(=N)N)NC(=O)[C@H](CCCNC(=N)N)NC(=O)[C@H]([C@@H](C)CC)NC1=O` [compound 63] ({CH2CO}-AV[NMe3Pal]VWN[3Pal(6-NH2)]Y(Me)IIRRF[NMeY]C[PEG4]-NH2; thioether N-15) was 1 to 100 nM. With `CC[C@H](C)[C@@H]1NC(=O)[C@H](Cc2ccc(OC)cc2)NC(=O)[C@H](Cc2ccc(N)nc2)NC(=O)[C@H](CC(N)=O)NC(=O)[C@H](Cc2c[nH]c3ccccc23)NC(=O)[C@H](C(C)C)NC(=O)[C@H](Cc2ccncc2)N(C)C(=O)[C@H](C(C)C)NC(=O)[C@H](C)NC(=O)CSC[C@@H](C(=O)NCCOCCOCCOCCOCCC(N)=O)NC(=O)[C@H](Cc2ccc(O)cc2)N(C)C(=O)[C@H](Cc2ccccc2)NC(=O)[C@H](CCCNC(=N)N)NC(=O)[C@H](CCCNC(=N)N)NC(=O)[C@H]([C@@H](C)CC)NC1=O` [compound 64] ({CH2CO}-AV[NMe4Pal]VWN[3Pal(6-NH2)]Y(Me)IIRRF[NMeY]C[PEG4]-NH2; thioether N-15) the figure was 1 to 100 nM; with `CC[C@H](C)[C@@H]1NC(=O)[C@H](Cc2ccc(OC)cc2)NC(=O)[C@H](Cc2ccc(O)cc2)NC(=O)[C@H](CC(N)=O)NC(=O)[C@H](Cc2c[nH]c3ncccc23)NC(=O)[C@H](C(C)C)NC(=O)[C@H](Cc2cccc(Cl)c2)N(C)C(=O)[C@H](C(C)C)NC(=O)[C@H](C)NC(=O)CSC[C@@H](C(=O)NCCOCCOCCOCCOCCC(N)=O)NC(=O)[C@H](Cc2ccc(O)cc2)N(C)C(=O)[C@H](Cc2ccncc2)NC(=O)[C@H](CCCNC(=N)N)NC(=O)[C@H](CCCNC(=N)N)NC(=O)[C@H]([C@@H](C)CC)NC1=O` [compound 65], 1 to 100 nM; with `CC[C@H](C)[C@@H]1NC(=O)[C@H](Cc2ccc(OC)cc2)NC(=O)[C@H](Cc2ccc(O)cc2)NC(=O)[C@H](CC(N)=O)NC(=O)[C@H](Cc2c[nH]c3ccccc23)NC(=O)[C@H](C(C)C)NC(=O)[C@H](Cc2cccc(Cl)c2)N(C)C(=O)[C@H](C(C)C)NC(=O)[C@H](C)NC(=O)CSC[C@@H](C(=O)NCCOCCOCCOCCOCCC(N)=O)NC(=O)[C@H](Cc2cccnc2)N(C)C(=O)[C@H](Cc2ccncc2)NC(=O)[C@H](CCCNC(=N)N)NC(=O)[C@H](CCCNC(=N)N)NC(=O)[C@H]([C@@H](C)CC)NC1=O` [compound 66], 1 to 100 nM.

Turning to `CC[C@H](C)[C@@H]1NC(=O)[C@H](Cc2cccnc2)NC(=O)[C@H](Cc2ccc(O)cc2)NC(=O)[C@H](CC(N)=O)NC(=O)[C@H](Cc2c[nH]c3ccccc23)NC(=O)[C@H](C(C)C)NC(=O)[C@H](Cc2cccc(Cl)c2)N(C)C(=O)[C@H](C(C)C)NC(=O)[C@H](C)NC(=O)CSC[C@@H](C(=O)NCCOCCOCCOCCOCCC(N)=O)NC(=O)[C@H](Cc2ccc(O)cc2)N(C)C(=O)[C@H](Cc2ccncc2)NC(=O)[C@H](CCC(N)=O)NC(=O)[C@H](CCC(N)=O)NC(=O)[C@H]([C@@H](C)CC)NC1=O` [compound 67] ({CH2CO}-AV[NMePhe(3-Cl)]VWNY[3Pal]IIQQ[4Pal][NMeY]C[PEG4]-NH2; thioether N-15), the Kd was in the range of 1 to 100 nM. Consider `CC[C@H](C)[C@@H]1NC(=O)[C@H](Cc2cccnc2)NC(=O)[C@H](Cc2ccc(O)cc2)NC(=O)[C@H](CC(N)=O)NC(=O)[C@H](Cc2c[nH]c3ccccc23)NC(=O)[C@H](C(C)C)NC(=O)[C@H](Cc2cccc(Cl)c2)N(C)C(=O)[C@H](C(C)C)NC(=O)[C@H](C)NC(=O)CSC[C@@H](C(=O)NCC(=O)N[C@H](CCCCNC(=O)N(C)C[C@H](O)[C@@H](O)[C@H](O)[C@H](O)CO)C(=O)N[C@H](CCCCNC(=O)N(C)C[C@H](O)[C@@H](O)[C@H](O)[C@H](O)CO)C(=O)N[C@H](CCCCNC(=O)N(C)C[C@H](O)[C@@H](O)[C@H](O)[C@H](O)CO)C(=O)N[C@H](CO)C(=O)N[C@H](CO)C(=O)N[C@@H](CCCCN=[N+]=[N-])C(N)=O)NC(=O)[C@H](Cc2ccc(O)cc2)N(C)C(=O)[C@H](Cc2ccncc2)NC(=O)[C@H](CCCNC(=N)N)NC(=O)[C@H](CCCNC(=N)N)NC(=O)[C@H]([C@@H](C)CC)NC1=O` [compound 68] ({CH2CO}-AV[NMePhe(3-Cl)]VWNY[3Pal]IIRR[4Pal][NMeY]CG[dK]([CO-Meglumine])[dK]([CO-Meglumine])[dK]([CO-Meglumine])[dS][dS][Lys(N3)]-NH2; thioether N-15), for which the Kd fell in the range of 1 to 100 nM. With `CC[C@H](C)[C@@H]1NC(=O)[C@H](Cc2cccnc2)NC(=O)[C@H](Cc2ccc(O)cc2)NC(=O)[C@H](CC(N)=O)NC(=O)[C@H](Cc2c[nH]c3ccccc23)NC(=O)[C@H](C(C)C)NC(=O)[C@H](Cc2cccc(Cl)c2)N(C)C(=O)[C@H](C(C)C)NC(=O)[C@H](C)NC(=O)CSC[C@@H](C(=O)NCC(=O)N[C@H](CCC(=O)O)C(=O)N[C@H](CCC(=O)O)C(=O)N[C@H](CCC(=O)O)C(=O)N[C@H](CO)C(=O)N[C@H](CO)C(=O)N[C@@H](CCCCN=[N+]=[N-])C(N)=O)NC(=O)[C@H](Cc2ccc(O)cc2)N(C)C(=O)[C@H](Cc2ccncc2)NC(=O)[C@H](CCCNC(=N)N)NC(=O)[C@H](CCCNC(=N)N)NC(=O)[C@H]([C@@H](C)CC)NC1=O` [compound 69] the figure was 1 to 100 nM. The value for `CC[C@H](C)[C@@H]1NC(=O)[C@H](Cc2ccc(OC)cc2)NC(=O)[C@H](Cc2ccc(O)cc2)NC(=O)[C@H](CC(N)=O)NC(=O)[C@H](Cc2cn(CC(=O)O)c3ccccc23)NC(=O)[C@H](C(C)C)NC(=O)[C@H](Cc2cccc(Cl)c2)N(C)C(=O)[C@H](C(C)C)NC(=O)[C@H](C)NC(=O)CSC[C@@H](C(=O)NCCOCCOCCOCCOCCC(N)=O)NC(=O)[C@H](Cc2ccc(O)cc2)N(C)C(=O)[C@H](Cc2ccccc2)NC(=O)[C@H](CCC(=O)NCCOCCOCCOCCOCCOCCOCCOCCOC)NC(=O)[C@H](CCCNC(=N)N)NC(=O)[C@H]([C@@H](C)CC)NC1=O` [compound 70] was 1 to 100 nM; that for `CC[C@H](C)[C@@H]1NC(=O)[C@H](Cc2ccc(OCC(=O)O)cc2)NC(=O)[C@H](Cc2ccc(N)nc2)NC(=O)[C@H](CC(N)=O)NC(=O)[C@H](Cc2cn(CC(=O)O)c3ccccc23)NC(=O)[C@H](C(C)C)NC(=O)[C@H](Cc2cccc(Cl)c2)N(C)C(=O)[C@H](C(C)C)NC(=O)[C@H](C)NC(=O)CSC[C@@H](C(=O)NCCOCCOCCOCCOCCC(N)=O)NC(=O)[C@H](Cc2ccc(O)cc2)N(C)C(=O)[C@H](Cc2ccccc2)NC(=O)[C@H](CCCNC(=N)N)NC(=O)[C@H](CCCNC(=N)N)NC(=O)[C@H]([C@@H](C)CC)NC1=O` [compound 71] ({CH2CO}-AV[NMePhe(3-Cl)]V[Trp(1-CH2COOH)]N[3Pal(6-NH2)]Y(Carboxymethyl)IIRRF[NMeY]C[PEG4]-NH2; thioether N-15) was 1 to 100 nM.
